pEC50: −log10 of the molar value.
Target: T1, GPR3 (Homo sapiens, UniProt P46089, INS231ASEIGTGFPFDPHYVEVLGERMHYVDVGPRDGTPVLFLHGNPTSSYVWRNIIPHVAPTHRCIAPDLIGMGKSDKPDLGYFFDDHVRFMDAFIEALGLEEVVLVIHDWGSALGFHWAKRNPERVKGIAFMEFIRPIPTWDEWPEFARETFQAFRTTDVGRKLIIDQNVFIEGTLPMGVVRPLTEVEMDHYREPFLNPVDREPLWRFPNELPIAGEPANIVALVEEYMDWLHQSPVPKLLFWGTPGVLIPPAEAARLAKSLPNCKAVDIGPGLNLLQEDNPDLIGSEIARWLSTLEISGGS)
T1 construct: ligated to the full-length C-terminus; expressed in transfected cells; some experiments transient
Test: BRET-based conformational GPR3 biosensor (GPR3-HaloTag/Nluc) in HEK293A cells
Assay type: cell-based
Settings: for pEC50: HEK293A cells stably expressing the biosensor, read-out: EC50 at GPR3-HaloTag/Nluc
Excerpt: To develop a conformational GPR3 biosensor that can be used in a microtiter well plate format, we employed the intramolecular BRET design previously validated for several GPCRs. − The BRET donor NanoLuc was fused to the receptor’s full-length C-terminus and the self-labeling protein tag, HaloTag, was inserted into GPR3′s third intracellular loop between amino acids Arg231 and His232 (Figure a; sequence in Figure S1). […]
Plasmids and molecular cloning […]
Plasmids encoding the conformational biosensors α2AAR- and β2AR-HaloTag/Nluc9 and the Gs heterotrimer dissociation sensor10 were previously described. The expression plasmid encoding N-terminally HA-tagged GPR3 (cat. no.
#GPR003TN00) on a pcDNA3.1+ vector was obtained from the cDNA resource center (cdna.org). The Nluc and HaloTag in-serts were amplified with overhanging restriction sites from β2AAR- HaloTag/Nluc and ligated to the full-length C-terminus or inserted into icl3 of GPR3, respectively, to obtain the conformational biosensor GPR3-HaloTag/Nluc. Point mutants of GPR3-HaloTag/Nluc were generated using the GeneArt Site-directed Mutagenesis System (Thermo Fisher Scientific). All con-structs were verified by sequencing (Eurofins genomics). […]
serum albumin (BSA) were obtained from Sigma Aldrich (Merck KGaA). Dulbecco's Modified Eagle's Medium (DMEM), Dul- […]
Diphenyleneiodonium chloride (DPI) and AF64394 were purchased from Tocris (Bio -Techne). The TMB (3, 3', 5, 5' tetramethyl benzidine) substrate reagent set was […]
were obtained in a single kit from Promega (cat. no. N1662). D-luciferin-sodium and the S1PR1 agonist III were from Med-ChemExpress. The Rluc substrate coelenterazine 400a was from NanoLight Technology (cat. no. 340 -10). White -wall, white - bottomed 96 -well, black -wall, black bottomed and transparent 96 -well microtiter plates were from Brand.
HEK293A cells were used for transient transfection and grown in Dulbecco’s modified Eagle’s medium (DMEM) supplemented with 2 mM glutamine, 10 % fetal calf serum, streptomycin (0.1 mg/mL), and penicillin (100 U/mL) at 37 °C with 5 % CO2. For the generation of stable GPR3 -HaloTag/Nluc cells, HEK293A cells grown in T75 flasks were transfected at a confluence of 40 – […]
Absence of mycoplasma contamination was routinely
Transient transfection and plating
Resuspended cells (300,000 cells/mL) were transfected in suspension with a total of 1 μg DNA/mL suspension using PEI (1 mg/ml stock solution; 3 μL PEI solution per μg DNA). […]
Cells mixed with the transfection reagents were seeded onto poly-D-lysine–precoated, 96-well plates and grown for 48 h at 37 °C with 5 % CO2. Stable α2AAR-, β2AR- or GPR3-HaloTag/Nluc expressing cells were seeded 24 h before the experi-ment at a density of 800,000 cells/mL into white 96-well plates. To monitor changes in BRET in with conformational GPCR […]
experiment. White plates were used for BRET and luminescence measurements, black plates for FRET experiments and trans-parent plates for absorbance-based quantification of receptor surface expression levels.

T1 sequence (P46089 with tags, fused parts or gaps with the stated changes): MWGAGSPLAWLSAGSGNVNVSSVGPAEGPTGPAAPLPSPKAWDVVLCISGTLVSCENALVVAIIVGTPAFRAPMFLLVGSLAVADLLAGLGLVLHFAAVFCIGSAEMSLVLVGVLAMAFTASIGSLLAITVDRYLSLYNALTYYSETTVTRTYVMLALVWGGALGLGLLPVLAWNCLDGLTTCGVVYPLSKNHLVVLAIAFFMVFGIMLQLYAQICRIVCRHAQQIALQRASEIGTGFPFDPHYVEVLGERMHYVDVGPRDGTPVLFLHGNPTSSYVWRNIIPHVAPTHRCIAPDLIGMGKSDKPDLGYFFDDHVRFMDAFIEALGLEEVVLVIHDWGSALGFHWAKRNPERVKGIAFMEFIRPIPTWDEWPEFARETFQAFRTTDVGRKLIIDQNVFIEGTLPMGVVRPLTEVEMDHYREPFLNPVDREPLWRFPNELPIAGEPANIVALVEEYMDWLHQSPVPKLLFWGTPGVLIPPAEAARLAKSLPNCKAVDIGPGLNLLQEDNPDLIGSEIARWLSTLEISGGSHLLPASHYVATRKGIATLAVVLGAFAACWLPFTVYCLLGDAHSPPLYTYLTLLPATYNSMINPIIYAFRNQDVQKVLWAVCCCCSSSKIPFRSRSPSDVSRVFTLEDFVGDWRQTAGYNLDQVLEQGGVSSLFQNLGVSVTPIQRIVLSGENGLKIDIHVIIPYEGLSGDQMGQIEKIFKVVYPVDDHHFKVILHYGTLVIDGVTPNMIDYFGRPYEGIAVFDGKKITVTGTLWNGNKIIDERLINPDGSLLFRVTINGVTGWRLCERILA

Row | effect of preincubation on OEA and oleamide potency in GPR3 conformation assay (30 µM preincubation) | pEC50 | SMILES
1 | reduced potency of OEA, but not oleamide | 5.30 | N=c1n(Cc2ccccc2)c2ccccc2n1CC1CC1 [compound 33]
2 | – | 4.60 | N=c1n(Cc2ccccc2)c2ccccc2n1CC(O)COc1ccc(Cl)cc1 (stereo not shown) [compound 52]
3 | – | 4.07 | Cc1ccc(NC(=O)CN2CCN(C(=O)CCc3ccc(Cl)cc3)CC2)cc1 [compound 115]
